Molecular target: T1, endogenous PTHR in ROS 17/2.8 cells (Rattus norvegicus, UniProt P25961)
T1 construct: ROS 17/2.8 cells are rat osteosarcoma cells and express the endogenous PTHR; endogenous in cells; host or cells: ROS 17/2.8 rat osteosarcoma cells
T1 sequence (P25961 27-591): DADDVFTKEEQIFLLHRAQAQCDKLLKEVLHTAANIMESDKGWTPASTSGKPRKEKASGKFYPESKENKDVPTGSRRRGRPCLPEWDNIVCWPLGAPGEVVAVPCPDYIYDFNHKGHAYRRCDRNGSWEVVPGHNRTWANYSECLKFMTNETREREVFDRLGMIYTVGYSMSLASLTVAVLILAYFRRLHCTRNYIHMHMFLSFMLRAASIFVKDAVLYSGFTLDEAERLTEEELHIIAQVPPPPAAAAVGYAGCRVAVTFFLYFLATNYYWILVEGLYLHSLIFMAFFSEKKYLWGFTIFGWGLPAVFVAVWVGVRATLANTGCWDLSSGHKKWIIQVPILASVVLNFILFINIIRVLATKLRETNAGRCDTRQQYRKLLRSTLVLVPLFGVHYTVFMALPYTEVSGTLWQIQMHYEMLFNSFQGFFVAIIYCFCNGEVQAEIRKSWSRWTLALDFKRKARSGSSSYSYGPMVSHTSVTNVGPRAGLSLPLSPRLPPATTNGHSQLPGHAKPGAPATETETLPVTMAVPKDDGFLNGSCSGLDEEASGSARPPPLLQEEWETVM
Assay: Competition binding in intact ROS 17/2.8 cells with 125I-PTH(1-34) tracer
Settings: 125I-[Nle8,21,Tyr34]rPTH(1-34)NH2 tracer
Procedure: Cell Culture—Cells were cultured at 37° C. in a humidified atmosphere containing 5% CO2 in Dulbecco's modified Eagle's medium (DMEM), supplemented with 10% fetal bovine serum (HyClone, Logan Utah), 100 units/ml penicillin G, and 100 ug/ml streptomycin penicillin G/streptomycin (Invitrogen Corp. Carlsbad, Calif.). For binding and cAMP studies performed with the intact PTHR, the HKRK-B7 and ROS 17/2.8 cell lines were used. HKRK-B7 cells are derived from the porcine kidney cell line LLC-PK1 and express, via stable DNA transfection, the wild-type human PTHR at an approximate surface density of 950,000 PTH-binding sites per cell. […]
Receptor binding—Binding to the wild-type human PTHR in intact HKRK-B7 cells and ROS 17/2.8 cells was assessed using ^125I-PTH(1-34) as a tracer radioligand, as described (Shimizu, M., (2001) Endocrinology 142:3068-3074). […] The binding mixture was then removed by aspiration, the cells were rinsed three times with binding buffer, lysed in 1 M NaOH, and the entire lysate was counted for gamma-irradiation in a gamma counter. Binding to PTHR-delNt in COS-7 cell membranes was assessed in 96-well, vacuum filtration plates (Multiscreen-Durapore HV, […] membranes, Millipore Corp., Millford, Mass.) using ^125I-[Aib^1,3,M]PTH(1-15)NH2 as a tracer radioligand, as described (Dean, T., (2006) Mol Endocrinol 20:931-942). […]

**Q.** “SVSEIQLMHNLGKHLNSMEEVEWLRKKLQDV [Arg^20→Glu]” was tested. Which IC50 did it give?
**A.** Its IC50 is 5.8 µM.
